Results as given in ChEMBL document CHEMBL1140044, “Structure-activity relationship study on anti-HIV 6-desfluoroquinolones” (J Med Chem, 2008).
Values after ≈ are worked out from the molar mass of the structure shown. Active and inactive are the calls of the source. The calls are words filed in the database; no cut-off is given here.

Assays:
[1] = tested on: Human immunodeficiency virus 1; assay: Antiviral activity against HIV1 3B in PBMC assessed as inhibition of p24 production after 7 days by ELISA; assay type: functional, organism-based; conditions: Human immunodeficiency virus 1, 3B, 168 h
[2] = Cytotoxicity against mock-infected human MT4 cells after 5 days by MTT assay; assay type: cell-based
[3] = tested on: Human immunodeficiency virus 2; assay: Antiviral activity against HIV2 ROD in MT4 cells assessed as inhibition of virus-induced cytopathogenicity by MTT assay; assay type: functional, organism-based; conditions: Human immunodeficiency virus 2, ROD
[4] = Cytotoxicity against mock-infected human PBMC cells by trypan blue exclusion assay; assay type: cell-based
[5] = Selectivity index, ratio of CC50 for human MT4 cells to EC50 for HIV1 3B; assay type: toxicity, cell-based; conditions: read-out: Ratio CC50/EC50
[6] = tested on: Human immunodeficiency virus 1; assay: Antiviral activity against HIV1 3B in CEM cells assessed as inhibition of virus-induced syncytium formation after 4 days by microscopy; assay type: functional, organism-based; conditions: Human immunodeficiency virus 1, 3B, CCRF-CEM, 96 h
[7] = tested on: Human immunodeficiency virus 2; assay: Antiviral activity against HIV2 ROD in CEM cells assessed as inhibition of virus-induced syncytium formation after 4 days by microscopy; assay type: functional, organism-based; conditions: Human immunodeficiency virus 2, ROD, CCRF-CEM, 96 h
[8] = Cytotoxicity against mock-infected human CEM cells by Coulter counter; assay type: cell-based; conditions: mock-infected CEM (CCRF-CEM) cells
[9] = Selectivity index, ratio of CC50 for human MT4 cells to EC50 for HIV2 ROD; assay type: toxicity, cell-based; conditions: read-out: Ratio CC50/EC50
[10] = Selectivity index, ratio of CC50 for human CEM cells to EC50 for HIV2 ROD; assay type: toxicity, cell-based, CCRF-CEM; conditions: read-out: Ratio CC50/EC50
[11] = Selectivity index, ratio of CC50 for human PBMC cells to EC50 for HIV1 3B; assay type: toxicity, cell-based; conditions: read-out: Ratio CC50/EC50
[12] = tested on: Human immunodeficiency virus 1; assay: Inhibition of HIV1 3B production in chronically infected HUT78 cells assessed as virus p24 antigen production after 44 hrs by ELISA; assay type: functional, organism-based
[13] = tested on: Human immunodeficiency virus 1; assay: Antiviral activity against HIV1 3B in MT4 cells assessed as inhibition of virus-induced cytopathogenicity by MTT assay; assay type: functional, organism-based; conditions: Human immunodeficiency virus 1, 3B
[14] = Selectivity index, ratio of CC50 for human CEM cells to EC50 for HIV1 3B; assay type: toxicity, cell-based, CCRF-CEM; conditions: read-out: Ratio CC50/EC50
[15] = tested on: Human immunodeficiency virus 1; assay: Antiviral activity against HIV1 3B in MT4 cells assessed as virus p24 antigen production administered at 5 hrs post infection by ELISA; assay type: functional, organism-based
[16] = tested on: Human immunodeficiency virus 1; assay: Antiviral activity against HIV1 3B in MT4 cells assessed as virus p24 antigen production administered at 16 hrs post infection by ELISA; assay type: functional, organism-based
[17] = target: T1, Protein Tat (Human immunodeficiency virus type 1 group M subtype B (isolate HXB2)(HIV-1)) (UniProt P04608); assay: Inhibition of HIV1 Tat-mediated LTR promoter transactivation in Tat/GFP plasmid expressed in Jurkat cells assessed as GFP gene expression by FACS analysis; assay type: cell-based; conditions: Human immunodeficiency virus 1
T1 sequence (whole entry): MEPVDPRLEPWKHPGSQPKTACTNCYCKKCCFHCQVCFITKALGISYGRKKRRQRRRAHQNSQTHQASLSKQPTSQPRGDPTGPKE

`Cn1cc(C(=O)O)c(=O)c2ccc(N3CCN(c4cccc(C(F)(F)F)c4)CC3)cc21` gave an EC50 [1] of 0.28 µg/mL (≈ 0.649 µM), a CC50 at 120 h [2] of 2.61 µg/mL (≈ 6.05 µM) and an EC50 [3] of 0.13 µg/mL (≈ 0.301 µM). The CC50 [4] was 0.69 µg/mL (≈ 1.6 µM), the selectivity ratio [5] was 38 and the EC50 [6] was 0.13 µg/mL (≈ 0.301 µM). For the same compound, the EC50 [7] was 0.28 µg/mL (≈ 0.649 µM), the CC50 [8] was 1.2 µg/mL (≈ 2.78 µM) and the selectivity ratio [9] was 21. The selectivity ratio [10] was 4, the selectivity ratio [11] was 2 and the Activity [12] was “Active”. For the same compound, the EC50 [13] was 0.07 µg/mL (≈ 0.162 µM) and the selectivity ratio [14] was 9.
In the case of `Cn1cc(C(=O)O)c(=O)c2ccc(N3CCN(c4cnccn4)CC3)cc21`, the CC50 at 120 h [2] is reported as over 125 µg/mL, the EC50 [3] is reported as 16.4 µg/mL (≈ 44.7 µM) and the selectivity ratio [5] is reported as over 2. It also gave an EC50 [6] of 35 µg/mL (≈ 95.8 µM), an EC50 [7] of 47.5 µg/mL (≈ 130 µM) and a CC50 [8] of over 100 µg/mL. For the same compound, the selectivity ratio [9] was 8, the selectivity ratio [10] was over 2 and the EC50 [13] was 58.2 µg/mL (≈ 159 µM). The selectivity ratio [14] was over 3.
With `CC(C)c1nc(CN(C)C(=O)N[C@H](C(=O)N[C@@H](Cc2ccccc2)C[C@H](O)[C@H](Cc2ccccc2)NC(=O)OCc2cncs2)C(C)C)cs1` the Activity [15] was “Active” and the Activity [16] was “Active”.
In the case of `C/C(=N\O)c1cn(C)c2cc(N3CCN(c4ccccn4)CC3)c(N)cc2c1=O`, the CC50 at 120 h [2] is reported as over 125 µg/mL, the EC50 [3] is reported as over 125 µg/mL and the EC50 [13] is reported as over 125 µg/mL.
For `Cn1cc(C(=O)O)c(=O)c2cc(N)c(N3CCNCC3)cc21`, the CC50 at 120 h [2] was at least 94 µg/mL, the EC50 [3] was over 94 µg/mL and the EC50 [13] was over 94 µg/mL.
With `Cn1cc(C(=O)O)c(=O)c2cc(N)c(N3CCN(c4ccccn4)CC3)cc21` the EC50 [1] was 0.051 µg/mL (≈ 0.134 µM), the CC50 at 120 h [2] was 0.84 µg/mL (≈ 2.21 µM) and the EC50 [3] was 0.097 µg/mL (≈ 0.256 µM). The CC50 [4] was 1.45 µg/mL (≈ 3.82 µM), the selectivity ratio [5] was 15 and the EC50 [6] was 0.03 µg/mL (≈ 0.0791 µM). The EC50 [7] was 0.06 µg/mL (≈ 0.158 µM), the CC50 [8] was over 100 µg/mL and the selectivity ratio [9] was 10. For the same compound, the selectivity ratio [10] was over 1670, the selectivity ratio [11] was 29 and the EC50 [13] was 0.058 µg/mL (≈ 0.153 µM). The selectivity ratio [14] was over 3330.
In the case of `Cn1cc(C(=O)O)c(=O)c2ccc(N3CCN(c4nc5ccccc5o4)CC3)cc21`, the CC50 at 120 h [2] is reported as over 125 µg/mL, the EC50 [3] is reported as 11.9 µg/mL (≈ 29.3 µM) and the selectivity ratio [5] is reported as over 22. For the same compound, the EC50 [6] was 3.35 µg/mL (≈ 8.28 µM), the Activity [17] was “Dose-dependent effect” and the EC50 [7] was 14 µg/mL (≈ 34.6 µM). The CC50 [8] was over 100 µg/mL, the selectivity ratio [9] was over 11 and the selectivity ratio [10] was over 7. For the same compound, the EC50 [13] was 5.76 µg/mL (≈ 14.2 µM) and the selectivity ratio [14] was over 30.
With `Cn1cc(C(=O)O)c(=O)c2cc(N)c(N3CCC(c4ccccn4)CC3)cc21` the CC50 at 120 h [2] was over 125 µg/mL, the EC50 [3] was over 125 µg/mL and the EC50 [13] was over 125 µg/mL.
Compound `Cn1cc(C(=O)O)c(=O)c2cc(N)c(N3CCN(c4ccc5ccccc5n4)CC3)cc21` has a CC50 at 120 h [2] of 0.21 µg/mL (≈ 0.489 µM), an EC50 [3] of 0.022 µg/mL (≈ 0.0512 µM) and a selectivity ratio [5] of 6. For the same compound, the EC50 [6] was 0.036 µg/mL (≈ 0.0838 µM), the EC50 [7] was 0.075 µg/mL (≈ 0.175 µM) and the CC50 [8] was 4.15 µg/mL (≈ 9.66 µM). For the same compound, the selectivity ratio [9] was 10, the selectivity ratio [10] was 55 and the EC50 [13] was 0.035 µg/mL (≈ 0.0815 µM). It also gave a selectivity ratio [14] of 115.
In the case of `Cc1cn([C@H]2C[C@H](N=[N+]=[N-])[C@@H](CO)O2)c(=O)[nH]c1=O`, the Activity [15] is reported as “Active” and the Activity [16] is reported as “Active”.
Compound `CC(=O)c1cn(C)c2cc(N3CCN(c4ccccn4)CC3)c(N)cc2c1=O` has a CC50 at 120 h [2] of over 125 µg/mL, an EC50 [3] of over 125 µg/mL and an EC50 [13] of over 125 µg/mL.
In the case of `CO/N=C(\C)c1cn(C)c2cc(N3CCN(c4ccccn4)CC3)c(N)cc2c1=O`, the CC50 at 120 h [2] is reported as 92.7 µg/mL (≈ 228 µM), the EC50 [3] is reported as over 92.6 µg/mL and the selectivity ratio [5] is reported as under 1. For the same compound, the selectivity ratio [9] was under 1 and the EC50 [13] was over 92.6 µg/mL.
Work on `Cn1ccc(=O)c2cc(N)c(N3CCN(c4nccs4)CC3)cc21` yielded a CC50 at 120 h [2] of 89.5 µg/mL (≈ 262 µM), an EC50 [3] of over 89.5 µg/mL and a selectivity ratio [5] of under 1. For the same compound, the selectivity ratio [9] was under 1 and the EC50 [13] was over 89.5 µg/mL.
`Cc1cccc(Sc2cc3c(cc2N)c(=O)c(C(=O)O)cn3C)c1` showed a CC50 at 120 h [2] of over 2 µg/mL, an EC50 [3] of over 2 µg/mL and a selectivity ratio [5] of under 1. It also gave a selectivity ratio [9] of under 1 and an EC50 [13] of over 2 µg/mL.
Compound `Cn1ccc(=O)c2cc(N)c(N3CCN(c4nc5ccccc5o4)CC3)cc21` has a CC50 at 120 h [2] of 72.1 µg/mL (≈ 192 µM), an EC50 [3] of over 72.1 µg/mL and a selectivity ratio [5] of under 1. For the same compound, the selectivity ratio [9] was under 1 and the EC50 [13] was over 72.1 µg/mL.
